Data reported in US8202887B2, “2-(substituted-amino)-benzothiazole sulfonamide HIV protease inhibitors” (Janssen R&D Ireland, priority 2006, dated 2012).

Columns and labels:
[1] = tested on: wild type laboratory HIV strain (WT IIIB-2-001); experiment: Cellular anti-viral assay in MT4-LTR-EGFP cells, wild type strain; assay type: cell-based; conditions: Human immunodeficiency virus 1, IIIB, 72 h; MT4-LTR-EGFP cells, three days, GFP signal; read-out: pEC50 WT-IIIB-2-001 (converted)
Description: The compounds were tested in a cellular assay using the MT4-LTR-EGFP cells for anti-viral activity.
The cellular assay was performed according to the following procedure. HIV- or mock-infected MT4-LTR-EGFP cells were incubated for three days in the presence of various concentrations of the compounds according to the invention. Upon infection, the viral tat protein activates the GFP reporter. At the end of the incubation period, the GFP signal was measured. […] The inhibitory activity of the compound was monitored on the virus-infected cells and was expressed as EC50. These values represent the amount of the compound required to protect 50% of the cells from virus infection.

[2] = tested on: clinically isolated HIV strain A; experiment: Cellular anti-viral assay in MT4-LTR-EGFP cells, mutant strain A; assay type: cell-based; conditions: Human immunodeficiency virus 1, 72 h, read-out: pEC50 virus strain A (converted)
Description: (§1) Because of the increasing emergence of drug resistant HIV strains, the present compounds were tested for their potency against clinically isolated HIV strains harboring several mutations. These mutations are associated with resistance to protease inhibitors and result in viruses that show various degrees of phenotypic cross-resistance to the currently commercially available drugs such as for instance saquinavir, ritonavir, nelfinavir, indinavir and amprenavir. The viral strains coded as A, B, C and D contain mutations as indicated below in Table 2.
(§2) The cellular assay was performed according to the following procedure. HIV- or mock-infected MT4-LTR-EGFP cells were incubated for three days in the presence of various concentrations of the compounds according to the invention. Upon infection, the viral tat protein activates the GFP reporter. At the end of the incubation period, the GFP signal was measured. In the virus control samples (in the absence of any inhibitor) the maximal fluorescent signal was obtained. The inhibitory activity of the compound was monitored on the virus-infected cells and was expressed as EC50. These values represent the amount of the compound required to protect 50% of the cells from virus infection. (Table 3).

[3] = tested on: clinically isolated HIV strain B; experiment: Cellular anti-viral assay in MT4-LTR-EGFP cells, mutant strain B; assay type: cell-based; conditions: Human immunodeficiency virus 1, 72 h, read-out: pEC50 virus strain B (converted)
Description: as §1, §2

[4] = tested on: clinically isolated HIV strain C; experiment: Cellular anti-viral assay in MT4-LTR-EGFP cells, mutant strain C; assay type: cell-based; conditions: Human immunodeficiency virus 1, 72 h, read-out: pEC50 virus strain C (converted)
Description: as §1, §2

[5] = tested on: clinically isolated HIV strain D; experiment: Cellular anti-viral assay in MT4-LTR-EGFP cells, mutant strain D; assay type: cell-based; conditions: Human immunodeficiency virus 1, 72 h, read-out: pEC50 virus strain D (converted)
Description: as §1, §2

[6] = Plasma exposure (AUC) in single-dose, dose-escalating dog study; assay type: in vivo, Beagle dogs; conditions: beagle
Description: Studies were carried out to test for the occurrence of erythema and edema in dogs. The compound having structural formula (II) was orally administered to Beagle dogs in an appropriate formulation as a single-dose, dose-escalating study design. In order to achieve high systemic exposures, a so-called booster compound was co-administered (ritonavir, RTV). Blood samples were taken at regular time points following the dosing. Clinical signs were recorded at least once daily for the treatment period and follow up (for at least 24 hours). Symptoms were graded on a […], with 0 being absence of symptoms, 1 mild, 2, moderate, 3 severe, 4 very severe. Special attention was paid to the occurrence of erythema and edema. The concentration of the compound having formula (II) in dog plasma was determined using a LC-MS/MS method. Raw data were used to calculate standard pharmacokinetic parameters (e.g. AUC) as a measure of systemic exposure. The systemic exposure for the compound having formula (II) was compared to the exposure of a reference compound having structural formula (III), in similar single-dose experiments in dogs, in the absence of a booster (ritonavir).

[7] = tested on: Beagle dogs; experiment: Hypersensitivity testing: erythema and edema in dogs, single dose; assay type: in vivo; conditions: for induction of erythema and/or edema: single dose experiments in dogs, summary in words
Description: Studies were carried out to test for the occurrence of erythema and edema in dogs. The compound having structural formula (II) was orally administered to Beagle dogs in an appropriate formulation as a single-dose, dose-escalating study design. In order to achieve high systemic exposures, a so-called booster compound was co-administered (ritonavir, RTV). Blood samples were taken at regular time points following the dosing. Clinical signs were recorded at least once daily for the treatment period and follow up (for at least 24 hours). Symptoms were graded on a […], with 0 being absence of symptoms, 1 mild, 2, moderate, 3 severe, 4 very severe. Special attention was paid to the occurrence of erythema and edema.

[8] = tested on: beagle dog; experiment: Single dose escalation/five day repeat dose toxicology study in beagle dog; assay type: in vivo
Description: In a single dose escalation/S day repeat dose dog toxicology study, beagle dogs were treated with compound II according to the current invention at dose levels from 40 up to 144 mg/kg day.

[9] = tested on: Beagle dogs; experiment: 28 day / 1-month toxicology study in beagle dogs; assay type: in vivo; conditions: for erythema and edema after oral administration: summary of toxicology studies up to 1 month in duration, beagle dog
Description: These findings occurred shortly after dosing, were transient in nature, maximal between approximately 1 to 2 hours after dosing, disappearing thereafter. There was a large interindividual variation in this response, with no dose-response relationship. Mechanistic studies to clarify the cause for erythema were not indicative of a histamine-based mechanism of action.

[10] = Pharmacokinetics of compound II and boosting effect of ritonavir in fed male beagle dogs; assay type: in vivo; conditions: for AUC(0-inf) / Cmax: male, beagle, dog, plasma, po
Description: Pharmacokinetics of Compound II and Boosting Effect of Ritonavir in Fed Male Beagle Dogs after Single Oral Administration of Compound II at 10 or 40 mg/kg.
The present study was performed to study the plasma pharmacokinetics of compound II in male beagle dogs after single oral administration doses of 10 and 40 mg/kg, and to evaluate the potential boosting effect of ritonavir, dosed at 10 mg/kg twice daily, on the bioavailability of compound II.
Beagle dogs (7-11 kg body weight) were dosed after feeding. Both compound II and ritonavir were given by gavage of an oral solution. All animals first received compound II alone, and after a washout of one week, the combination of ritonavir and compound II in the morning. Ritonavir dosing was repeated in the evening and on the next day's morning. Plasma was sampled to measure compound II and ritonavir concentrations until 32 hours after dosing of compound II.

[11] = tested on: beagle dog; experiment: Oral 3 month dog toxicology study; assay type: in vivo
Description: In some cases, these symptoms started as maculate erythema and/or nodular swelling and progressed to diffuse/general erythema and swelling. Signs were predominantly visible in areas with thin/sparse fur including the ears, periorbital region and abdomen. The findings were transient, with maximal severity about one hour after dosing and disappearing or decreasing to lower severity by 4 hours post-administration.

[12] = 10 mg/kg, 10 mg/kg compound II single oral, with Ritonavir 10 mg/kg twice daily
[13] = 10 mg/kg, 10 mg/kg compound II single oral, without Ritonavir
[14] = 40 mg/kg compound II single oral, with Ritonavir 10 mg/kg twice daily
[15] = 40 mg/kg, 40 mg/kg compound II single oral, without Ritonavir

CC(C)CN(C[C@@H](O)[C@H](Cc1ccccc1)NC(=O)O[C@H]1CO[C@H]2OCC[C@H]21)S(=O)(=O)c1ccc2nc(NC3CCN(C4CCCC4)CC3)sc2c1 [Compound 7, (1-benzyl-3-{[2-(1-cyclopentyl-piperidin-4-ylamino)-benzothiazole-6-sulfonyl]-isobutyl-amino}-2-hydroxy-propyl)-carbamic acid hexahydro-furo[2,3-b]furan-3-yl ester]
EC50 [1]: 0.0132 µM | EC50 [2]: 0.0117 µM | EC50 [3]: 0.02 µM | EC50 [4]: 2.88 µM | EC50 [5]: 0.0135 µM | AUC ([6]; oral single dose 20 mg/kg, with ritonavir (RTV) coadministration, mean of 4 animals): 7.75 µg·h/mL | AUC ([6]; oral single dose 40 mg/kg, with ritonavir (RTV) coadministration, mean of 4 animals): 23 µg·h/mL | AUC ([6]; oral single dose 80 mg/kg, with ritonavir (RTV) coadministration, mean of 4 animals): 23 µg·h/mL | Erythema/edema ([7]; oral single dose 20 mg/kg, with ritonavir (RTV) coadministration): No | Erythema/edema ([7]; oral single dose 40 mg/kg, with ritonavir (RTV) coadministration): No | Erythema/edema ([7]; oral single dose 80 mg/kg, with ritonavir (RTV) coadministration): No | induction of erythema and/or edema [7]: did not induce erythema and/or edema | edema or erythema ([8]; dose levels from 40 up to 144 mg/kg day): No evidence of edema or erythema | Erythema/edema ([9]; 1-month study, dose levels 5, 20 and 40 mg/kg/day): neither erythema nor edema was noted | erythema and edema after oral administration [9]: did not induce erythema and/or edema | Cmax Ratio (with/without Ritonavir) ([10]; 10 mg/kg compound II): 7.1 | Relative bioavailability Frel (AUC0-inf with vs without Ritonavir) ([10]; 10 mg/kg compound II): 1378% | Cmax Ratio (with/without Ritonavir) ([10]; 40 mg/kg compound II): 3.6 | Relative bioavailability Frel (AUC0-inf with vs without Ritonavir) ([10]; 40 mg/kg compound II): 1083% | increase of AUC in the presence of ritonavir ([10]; 10 and 40 mg/kg compound II): over 10 fold | increase of Cmax in the presence of ritonavir ([10]; 10 and 40 mg/kg compound II): 4 to 7 fold | AUC(0-inf) [10, 12]: 4.37 µg·h/mL | Cmax [10, 12]: 0.879 µg/mL | AUC(0-inf) [10, 13]: 0.33 µg·h/mL | Cmax [10, 13]: 0.123 µg/mL | AUC(0-inf) [10, 14]: 23.6 µg·h/mL | Cmax [10, 14]: 4.22 µg/mL | AUC(0-inf) [10, 15]: 2.29 µg·h/mL | Cmax [10, 15]: 1.19 µg/mL | total plasma exposure (AUC) and peak plasma concentrations (Cmax) after co-administration with ritonavir ([10]; twice-daily dosing of 10 mg/kg ritonavir, in words): markedly increased

CC(C)CN(C[C@@H](O)[C@H](Cc1ccccc1)NC(=O)O[C@H]1CO[C@H]2OCC[C@H]21)S(=O)(=O)c1ccc2nc(NCCN3CCCC3)sc2c1 [Reference compound having formula (III)]
AUC ([6]; oral, single dose 10 mg/kg, absence of booster, range): 0.047 to 0.238 µg·h/mL | AUC ([6]; oral, single dose 40 mg/kg, absence of booster, range): 3.32 to 5.09 µg·h/mL | AUC ([6]; oral, single dose 80 mg/kg, absence of booster, range): 7.37 to 16 µg·h/mL | AUC ([6]; oral, single dose 120 mg/kg, absence of booster, range): 10.2 to 27.5 µg·h/mL | Erythema/edema ([7]; single dose 10 mg/kg, absence of booster): No | Erythema/edema ([7]; single dose 40 mg/kg, absence of booster): No | Erythema/edema ([7]; single dose 80 mg/kg, absence of booster): Yes | Erythema/edema ([7]; single dose 120 mg/kg, absence of booster): Yes | induction of erythema and/or edema [7]: did induce these clinical signs | erythema ([8]; high dose level 80 mg/kg/day, after five consecutive days of treatment): exhibited general erythema | redness of the skin (erythema) ([9]; 28 day study, all dose levels (40, 80, 120 mg/kg/day), most animals): slight to severe redness of the skin | onset of erythema symptoms ([9]; 28 day study, dose levels 80 and 120 mg/kg/day): present from the start of the study | onset of erythema symptoms ([9]; 28 day study, low dose level 40 mg/kg/day): third week | swelling (edema) accompanying erythema ([9]; 28 day study, head, flews, eyes and/or ears, most cases): accompanied by swelling (edema) | time after dosing of maximal erythema/edema findings ([9]; 28 day study, transient findings): 1 to 2 h | erythema and edema after oral administration [9]: produced erythema and edema | erythema or edema ([11]; 10 mg/kg/day): No erythema or edema was observed | erythema ([11]; 40 mg/kg/day, after 5 weeks of treatment): one of four males dosed at 40 mg/kg/day exhibited general erythema | erythema of the skin and swelling ([11]; 120 mg/kg/day, majority of the animals, entire treatment period): slight to severe erythema of the skin, accompanied by swelling | time after dosing of maximal severity of erythema/swelling ([11]; 3 month study, transient findings): about one
